According to patent US20200206354A1, “DRUG DELIVERY COMPOSITION” (PK MED SAS, priority 2017, published 2020):
Several values for one entry are separate records, joined by “and”; a condition that tells them apart may be missing. Identical values can stand only once. Counter-ions that a name gives are not always drawn.

Key:
[1] = Drug integrity after extrusion and release, HPLC peaks compared with non-extruded drug
Method: An Ultimate 3000 HPLC system (Thermofisher Scientific) equipped with Diode Array Detector (DAD-3000(RS)) and a Phenomenex Kinetex EVO C18, LC Column 100×2.1 mm, 2.6 μm with a pore size of 100 Å. The column was controlled to a temperature of 30° C. The mobile phase was a gradient of Ammonium Bicarbonate 20 mM pH9/Acetonitrile (95/5% to 35/65 in 5 min) with a flow rate of 0.75 mL/min. Naltrexone hydrochloride powder was accurately weighed and dissolved in water to give 450 μg/mL solution. Subsequent dilutions were made with water to get concentrations of 7-450 μg/mL. The standard solutions prepared as above were injected in the same conditions of samples. The peak areas of the naltrexone concentration were calculated. The regression of the naltrexone concentration over the peak areas was obtained and used to estimate the amount of naltrexone released from the polymer.

[2] = Lysozyme activity after extrusion, liquid-liquid extraction and Lysozyme activity Kit; type: biochemical
Method: The lysozyme was extracted from the drug delivery composition by liquid-liquid extraction. 50 mg of drug delivery composition were solubilized in 2.5 mL of Dichloromethane. Then 7.5 mL of cold 66 mM potassium phosphate buffer pH6.24 was added. The mix was vigorously vortex. Samples were maintained in ice between each step. After phase separation, aqueous phase was taken off and lysozyme activity was measured using Lysozyme activity Kit (from Sigma-Aldrich).
The lysozyme was extracted from the drug delivery composition by liquid-liquid extraction as described in Example 4 and lysozyme activity was titrated with lysozyme activity kit (from Sigma-Aldrich).

[3] = lysozyme powder from Sigma-Aldrich; cited from earlier work

Row | Molecule | degradation of the released drug by the PLA-degrading enzyme ([1]; drug delivery composition with Savinase®) | degradation of naltrexone through the extrusion process ([1]; extruded in PLA at 168° C.) | lysozyme activity after two extrusions (in words) ([2]; Example 4 composition (PLA, PCL masterbatch, Savinase®), extrusions at 78° C. and 165° C., results not shown) | lysozyme activity retained after extrusion ([2]; Example 5.2 composition, 50% PCL and 50% lysozyme, extruded at 78° C.) [%] | denaturation temperature [3]
1 | O=C1CC[C@@]2(O)[C@H]3Cc4ccc(O)c5c4[C@@]2(CCN3CC2CC2)[C@H]1O5 [naltrexone, naltrexone hydrochloride] | without any degradation | not degraded | – | – | –
2 | lysozyme: lysozyme powder from Sigma-Aldrich, 14.7 kDa protein used as model drug | – | – | still exhibits activity | 95 | 76 °C and 74 °C
